Entries after “also recorded” stand apart in the source; their conditions may differ. Where no end group is shown, it is not given here.
How the values were obtained:
PAK-1 = assay: Immunoblot of PAK-1, PAK-1T212 and PAK-1T423 in hippocampal membrane and cytosolic fractions; format: in vivo, mice
Protocol: (§1) Immunoblot analysis: Immunoblot analysis was performed as described before^19. The antibody detecting pPAK-1Thr212 was used in a 1:250 dilution.
(§2) Anti-PAK-1 was from Santa Cruz (Santa Cruz, Calif.). All other antibodies were used in a 1:1000 dilution. pPAK-1Thr423 (Cell Signaling, Danvers, Mass.) synaptophysin (Sigma, St. Louis, Mo.), GAPDH and Rac-1 were from Upstate (Lake Placid, N.Y.), Cdk5 (J3) and p35 (C-19) were from Santa Cruz.
First, we measured PAK-1 phosphorylation at threonine 212 during extinction because this site is phosphorylated by p35/Cdk5^33. […] We also analyzed the activity of PAK-1 using a phospho-T423 antibody against PAK-1^37 in hippocampal lysates prepared from naïve mice and from mice 0.5 h after E1 or E3 by immunoblotting. We detected a significant increase in membrane associated PAK-1Thr423 levels after E3, when compared to E1 (FIG. 4b).
(§3) Next, we set out experiments to determine if the regulation of PAK-1 activity during extinction depended on the activities of Rac-1 and Cdk5/p35. To this end, lysates prepared from mice that were injected with a Rac-1 inhibitor or vehicle (as described under FIG. 3c) were analyzed by immunoblot. […] Consistently, PAK-1 levels increased in the cytosol of mice treated with Rac-1 inhibitor.
To investigate the impact of Cdk5/p35 activity on PAK-1 function during extinction, mice were implanted with microcannulae into the lateral ventricles and injected with 50 ng butyrolactone I immediately after E1. Because a single injection of butyrolactone I after E1 was sufficient to facilitate extinction (see FIG. 1d), hippocampal lysates were prepared 0.5 h after E1 and analyzed by immunoblotting using PAK-1 antibodies (FIG. 5a). […] In contrast, PAK-1T423 levels increased in lysates obtained from butyrolactone I injected mice (FIG. 5 b, c).

p35/Cdk5 = assay: Immunoblot of p35/Cdk5 in hippocampal membrane and cytosolic fractions; format: in vivo, mice; details: icv 10 μg/μl after E1-E3, fractions 0.5 h after E3
Protocol: as §1, §2
To this end, microcannuale were implanted into the lateral ventricles of mice that were subsequently trained by contextual fear conditioning and exposed to our extinction paradigm. Immediately after E1-E3 mice were injected with a Rac-1 inhibitor^35 (NSC23760; 10 μg/μl) or vehicle. Hippocampal membrane and cytosolic fractions were prepared 0.5 h after E3 and analyzed by immunoblot.

Mice (Balb/c) [1] = assay: Extinction of contextual freezing behavior after contextual fear conditioning; format: in vivo
Protocol: Animals: Mice (Balb/c, 12 weeks old) were housed under standard conditions with access to food and water ad libitum. All mice were purchased from Taconic (Germantown, N.Y.). Behavior testing was performed in a way that the mice were either housed in a separated compartment but within the testing room or different rooms were used for housing and testing. In the latter case the mice were brought to the testing room before the procedure. Although it appears that the dynamics of extinction behavior are somewhat variable depending on the employed behavior facility, the trends remain the same in different experiments. All experiments were approved by the corresponding Animal Use and Care Committee.
(§4) Extinction of contextual freezing behavior: Extinction and reminder shock procedures were performed as described before^6. In brief, mice were exposed to contextual fear conditioning (3 min context followed by at mild electric foot shock, 2 s, 0.7 mA). In some experiments a tone (30 s, 10 kHz, 75 dB SPL) was presented for 30 s before the shock. Extinction was performed on consecutive days. An extinction trial consisted of a 3 min re-exposure to the conditioning context.
Surgery/injection: Microcannula were purchased custom made from PlasticOne. The gauge of the guide and injection cannulae was 26 and 28, respectively. To insert cannulae into the dorsal hippocampus the coordinates AP −1.5 mm, lateral 1 mm, depth 2 mm were used as described before^18. To insert cannulae icy the coordinates AP +0.5 mm, lateral 1 mm, depth 2 mm were used. Butyrolactone I and roscovitine were dissolved and injected as described before^18. Rac-1 inhibitor was dissolved in aCSF and delivered bilaterally (0.5 μl/side) over a 1 min period. The correct localization of the cannulae was verified at the end of an experiment by methyleneblue injection. The cis-tronic Herpes Virus expressing GFP and dnPAK-1 or GFP alone was injected into the hippocampus bilaterally (0.5 μl/side) over a 2 min period. DnPAK-1 consisted of the DNA encoding amino acid 83-149 of PAK-1.
To test for a role of Cdk5 activity during extinction of learned fear, mice were implanted with microcannulae into the dorsal hippocampus (i.h.) and trained in the contextual fear conditioning paradigm. Fear conditioning consisted of a 3 min context exposure followed by a single electric foot shock ([…], constant current, 2 s). Subsequently, all mice were subjected to a daily extinction trial (E) on 6 consecutive days (E1-E6). Each extinction trial consisted of a 3 min re-exposure to the conditioned context without presenting the foot-shock again.

[2] = system: p35 co-immunoprecipitated with PAK-1; assay: Co-immunoprecipitation of PAK-1 and p35 from hippocampal lysates; format: in vivo, mice; details: Rac-1 inhibitor icv; 0.5 h after E3
Protocol: Membrane and cytosolic fractions were prepared form the hippocampus of mice 0.5 h after exposure to E1, E3 or from naïve animals and analyzed for the levels of the Cdk5 substrate PAK-1 by immunoblotting. […] In the cytosolic fraction pPAK-1T423 levels decreased after E1 when compared to naïve mice but increased back to baseline levels after E3. c. Hippocampal cytosolic and membrane fractions were prepared on E3 0.5 h after mice were injected (icv) with either vehicle or Rac-1 inhibitor. […] The same lysates as described under (c) were used to immunoprecipitate PAK-1. An HA antibody served a control for unspecific binding of proteins to the proteinA agarose beads. The precipitates were immunoblotted with antibodies against PAK-1 and p35. […] Error bars indicate S.E.M.
as §3

Mice (Balb/c) [3] = assay: Extinction of amygdala-dependent cued fear; format: in vivo; details: intrahippocampal injection
Protocol: as §4
(§5) In agreement with previous data the recovery of the fear response is rarely complete and may indicate that unlearning and new learning may coexist during extinction^29 30. […] In contrast, when butyrolactone I (50 ng) was administered 3 h after E1, freezing behavior was indistinguishable between butyrolactone I- and vehicle-injected mice (FIG. 1f). We estimated that the employed concentrations of butryrolactone I and roscovitine permit a specific inhibition of Cdk5. However high levels of those drugs may also affect Erk-1/2 kinases^31. […] Moreover, freezing behavior is not generally affected.

[4] = system: MAP kinase signaling pathway; assay: MAP kinase signaling pathway in hippocampus after injection; format: in vivo, mice; details: 50 ng into hippocampus
Protocol: as §5

hippocampal Cdk5 = target: T1, hippocampal Cdk5 (Mus musculus, UniProt P49615); assay: Hippocampal Cdk5 activity measured by histone H1 phosphorylation; format: in vivo, mice
T1 construct: from tissue; host or cells: hippocampus of Balb/c mice
T1 sequence (P49615 whole entry): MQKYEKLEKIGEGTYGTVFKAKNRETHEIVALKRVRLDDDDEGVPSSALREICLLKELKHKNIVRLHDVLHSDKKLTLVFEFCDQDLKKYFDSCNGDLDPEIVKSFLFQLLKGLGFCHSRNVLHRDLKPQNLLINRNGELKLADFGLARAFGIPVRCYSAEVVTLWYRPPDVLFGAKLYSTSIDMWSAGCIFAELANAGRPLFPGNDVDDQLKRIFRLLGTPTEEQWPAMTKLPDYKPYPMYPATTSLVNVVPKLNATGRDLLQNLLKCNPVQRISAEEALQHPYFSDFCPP
T1 sequence (P61809 2-307 partner limits assumed): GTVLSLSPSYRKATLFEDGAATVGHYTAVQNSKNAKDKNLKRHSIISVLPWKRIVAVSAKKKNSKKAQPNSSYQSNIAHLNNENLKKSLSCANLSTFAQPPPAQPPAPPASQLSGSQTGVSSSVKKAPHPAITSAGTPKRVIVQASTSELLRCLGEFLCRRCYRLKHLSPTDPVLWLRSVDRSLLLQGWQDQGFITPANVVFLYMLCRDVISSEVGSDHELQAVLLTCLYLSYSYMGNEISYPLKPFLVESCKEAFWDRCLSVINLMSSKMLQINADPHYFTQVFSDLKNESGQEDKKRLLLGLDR
Protocol: as §5

[5] = system: Rac1 interaction with Rac1-specific GEFs TrioN, GEF-H1 and Tiam1; details: Gao et al (2001) J. Biol. Chem. 276 47530; cited from earlier work
[6] = Rac-1 inhibitor icv, 0.5 h after E3, cytosolic fraction
[7] = Rac-1 inhibitor icv, 0.5 h after E3, membrane fraction
[8] = 50 ng immediately after E1, fractions 0.5 h later
[9] = 50 ng immediately after E1, fractions 0.5 h later, listed as Butyrolactone I

CCN(CC)CCCC(C)Nc1nc(C)cc(Nc2ccc3nc(C)cc(N)c3c2)n1 (stereo not drawn) [NSC23760]
PAK-1 levels in the cytosol vs. vehicle (PAK-1; [6]): increased
cytosolic PAK-1T212 levels vs. vehicle (PAK-1; [6]): decreased
membrane associated PAK-1T212 levels vs. vehicle (PAK-1; [7]): dramatic reduction; also recorded: significant reduction
membrane associated PAK-1 levels vs. vehicle (PAK-1; [7]): dramatic reduction; also recorded: significant reduction
membrane associated p35 and Cdk5 levels / distribution vs. vehicle (p35/Cdk5): dramatic redistribution of membrane associated p35 and Cdk5 to the cytosol
membrane associated p35 and Cdk5 levels / distribution vs. vehicle (p35/Cdk5; listed as Rac-1 inhibitor): significant reduction of membrane-associated Cdk5/p35
freezing behavior vs. vehicle group (Mice (Balb/c) [1]; icv 10 μg/μl immediately after E1-E3): significant reduction of freezing behavior; also recorded: reduced freezing
amount of p35 co-immunoprecipitated with PAK-1 vs. vehicle [2]: reduced amount of p35 co-immunoprecipitated with PAK-1; also recorded: Much less p35 co-immunoprecipitated with PAK-1

COC(=O)[C@@]1(Cc2ccc(O)c(CC=C(C)C)c2)OC(=O)C(O)=C1c1ccc(O)cc1 [butyrolactone I]
extinction of amygdala-dependent cued fear (Mice (Balb/c) [3]): did not affect extinction of amygdala-dependent cued fear
PAK-1T212 levels in the cytosolic fraction vs. vehicle (PAK-1; [8]): significantly reduced
PAK-1T212 levels in the membrane fraction vs. vehicle (PAK-1; [8]): reduced
distribution of total PAK-1 between membrane and cytosol vs. vehicle (PAK-1; [8]): re-distribution of total PAK-1 from the membrane to the cytosol
PAK-1T212 levels in the cytosolic fraction vs. vehicle (PAK-1; [9]): decreased
PAK-1T212 levels in the membrane fraction vs. vehicle (PAK-1; [9]): decreased
distribution of total PAK-1 between membrane and cytosol vs. vehicle (PAK-1; 50 ng immediately after E1, fractions 0.5 h later, listed as butyrolactone): significant re-distribution of PAK-1 from the membrane to the cytosol
PAK-1T423 levels vs. vehicle (PAK-1; 50 ng immediately after E1, fractions 0.5 h later, membrane fraction (FIG. 5c)): significantly increased
effect on MAP kinase signaling pathway [4]: did not affect the MAP kinase signaling pathway
freezing behavior / extinction vs. vehicle group (Mice (Balb/c) [1]; 12.5 ng i.h. after E1-E3, listed as butyrolactone 1): no significant effect on the reduction of freezing behavior
freezing behavior / extinction vs. vehicle group (Mice (Balb/c) [1]; 25 ng i.h. after E1-E3): Extinction was similar in vehicle and butyrolactone I injected mice
freezing behavior / extinction vs. vehicle group (Mice (Balb/c) [1]; 25 ng i.h. after E1-E3, listed as butyrolactone 1): no significant effect on the reduction of freezing behavior
freezing behavior / extinction vs. vehicle group (Mice (Balb/c) [1]; 50 ng i.h. 3 h after E1): indistinguishable
freezing behavior / extinction vs. vehicle group (Mice (Balb/c) [1]; 50 ng i.h. 3 h after E1, listed as butyrolacone I): no significant effect on extinction
freezing behavior vs. vehicle group (Mice (Balb/c) [1]; 50 ng i.h. immediately after E1-E3): reduced freezing behavior on E2 and E3
freezing behavior vs. vehicle group (Mice (Balb/c) [1]; 50 ng i.h. immediately after E1-E3, listed as butyrolactone 1): significantly reduced freezing behavior on E2 and E3
freezing behavior vs. vehicle group (Mice (Balb/c) [1]; 50 ng injected 1 h after E1): significant reduction of freezing behavior on E2
reinstatement of freezing behavior by reminder shock procedure (Mice (Balb/c) [1]; after 50 ng i.h. following E1-E3): able to reinstate freezing behavior
freezing behavior during the extinction trial (Mice (Balb/c) [1]; intrahippocampal injection 15 min before extinction trial 1 or 2): did not affect freezing behavior during the extinction trial
freezing behavior vs. vehicle group (Mice (Balb/c) [1]; single injection i.h. 50 ng immediately after E1): significantly diminished freezing behavior on the subsequent extinction trials
freezing behavior vs. vehicle group (Mice (Balb/c) [1]; single injection i.h. 50 ng immediately after E1, listed as butyrolactone): significant reduction of freezing behavior on E2
hippocampal Cdk5 activity (histone H1 phosphorylation) (hippocampal Cdk5; 12.5 ng i.h.): did not reduce hippocampal Cdk5 activity
hippocampal Cdk5 activity (histone H1 phosphorylation) (hippocampal Cdk5; 25 ng i.h.): did not reduce hippocampal Cdk5 activity

CC[C@H](CO)Nc1nc(NCc2ccccc2)c2ncn(C(C)C)c2n1 [roscovitine]
freezing behavior vs. vehicle group (Mice (Balb/c) [1]; roscovitine i.h. 50 ng into dorsal hippocampus immediately after E1-E3): reduced freezing behavior

MVDGKPVNLGLWDTAG [Rac1 Inhibitor W56]
inhibition of Rac1 interaction with Rac1-specific GEFs [5]: selectively inhibits
